Results reported in patent US12178879B2, “Hemiasterlin derivative and antibody-drug conjugate thereof” (priority 2019, dated 2024).

Experiments:
Karpas-299 cells [1] = assay: Cellular toxicity test (2), CellTiter-Glo; format: cell-based, human; details: for Cell remaining rate (%): 0.25 μM solution added 50 μL per well, 4 days, relative to addition of no compound; for cellular toxicity (in words): summary of Test Example 2
Method: Karpas-299 cells (European Collection of Authenticated Cell Cultures, hereinafter, ECACC), which are CD30 antigen-expressing cell lines and human lymphoma cell lines, were cultured in RPMI 1640 (GIBCO) containing 10% fetal bovine serum (MP Biomedicals) (hereinafter, referred to as “culture medium A” in this test). Karpas-299 cells were prepared to be 2×10^6 cells/mL in culture medium A, and were added to a 96 well microplate for cell culturing in an amount of 50 μL for each well. Each compounds prepared to be in a concentration of 0.25 μM with culture medium A was added to the microplate in an amount of 50 μL for each well, and culture was carried out at 37° C. under 5% CO2 for 4 days. After culturing, the microplate was taken out from the incubator, and was left at rest at room temperature for 10 minutes. To each well, 50 μL of CellTiter-Glo Luminescent Cell Viability Assay (Promega) was added, and the resultant mixture was stirred. This mixture was incubated at a dark place for 20 minutes, and luminescence was measured by using a microplate luminometer, thereby determining the percentage of the number of cells remaining after treatment with each compound to the number of cells remaining after treatment with addition of no compound.

porcine tubulin = biological target: T1, porcine tubulin (Sus scrofa, UniProt P02550+P02554); assay: Activity for inhibiting microtubule polymerization using porcine tubulins; format: biochemical; details: for Microtubule polymerization rate (%): at 9.1 μM, 60 minutes after assay initiation, absorbance at 340 nm, 37° C.; for activity for inhibiting microtubule polymerization (in words): summary of Test Example 3
T1 construct: purchased Cytoskeleton Inc. BK006P
T1 sequence (P02550 whole entry): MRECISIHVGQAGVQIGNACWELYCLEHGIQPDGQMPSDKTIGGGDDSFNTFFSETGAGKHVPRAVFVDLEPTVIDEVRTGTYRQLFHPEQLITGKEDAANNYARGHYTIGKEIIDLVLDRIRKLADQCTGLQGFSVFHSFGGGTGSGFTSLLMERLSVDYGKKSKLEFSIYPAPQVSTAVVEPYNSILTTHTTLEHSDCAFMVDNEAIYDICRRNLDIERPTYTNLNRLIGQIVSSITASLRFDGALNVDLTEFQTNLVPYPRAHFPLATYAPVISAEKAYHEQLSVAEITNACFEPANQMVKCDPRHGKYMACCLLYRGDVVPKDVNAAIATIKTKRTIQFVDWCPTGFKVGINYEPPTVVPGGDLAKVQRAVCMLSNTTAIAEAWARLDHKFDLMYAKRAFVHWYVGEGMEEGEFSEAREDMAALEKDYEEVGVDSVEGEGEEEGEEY
T1 sequence (P02554 whole entry): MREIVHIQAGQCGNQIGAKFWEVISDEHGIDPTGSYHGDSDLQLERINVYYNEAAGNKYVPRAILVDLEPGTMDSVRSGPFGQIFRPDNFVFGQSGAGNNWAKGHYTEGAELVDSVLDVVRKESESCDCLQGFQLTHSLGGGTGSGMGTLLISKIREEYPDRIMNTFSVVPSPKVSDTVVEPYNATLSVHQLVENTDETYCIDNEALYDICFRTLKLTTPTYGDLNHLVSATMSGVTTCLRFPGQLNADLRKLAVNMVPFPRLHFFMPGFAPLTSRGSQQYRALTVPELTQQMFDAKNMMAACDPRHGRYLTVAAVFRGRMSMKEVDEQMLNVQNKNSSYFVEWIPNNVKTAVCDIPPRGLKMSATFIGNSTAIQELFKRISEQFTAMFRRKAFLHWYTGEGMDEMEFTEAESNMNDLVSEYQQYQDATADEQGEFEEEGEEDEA
Method: Using a tubulin polymerization inhibition assay kit (catalog number: BK006P) purchased from Cytoskeleton Inc., the polymerization inhibitory activity of compounds of Examples was evaluated in accordance with the protocol appended to the kit. To a 96 well microplate, 80 mM PIPES pH 6.9, 2 mM MgCl, 0.5 mM EGTA and 5% DMSO buffered solution of the compound to be evaluated was added in an amount of 10 μL for each well, and to these wells, 3 mg/mL porcine tubulin 80 mM PIPES pH 6.9, 2 mM MgCl, 0.5 mM EGTA, 1 mM GTP and 10.2% glycerol solution was added in an amount of 100 μL for each well. In order to examine a state in which tubulins polymerize over time, the absorbance at 340 nm was measured at 37° C., using a microplate reader. As the polymerization of tubulins progresses, the absorbance at 340 nm rises.
The tubulin polymerization inhibitory activity was evaluated based on the proportion of polymerized tubulins 60 minutes after the assay initiation. Specifically, the microtubule polymerization rate (%) was calculated by dividing the absorbance of tubulins that had polymerized at wells to which the compound had been added by the absorbance of tubulins that had polymerized at wells to which the compound had not been added, and multiplying the obtained value by 100.

Karpas-299 cells [2] = assay: Cellular toxicity test (1), CellTiter-Glo; format: cell-based, human; details: 16 μg/mL solution added 50 μL per well, 4 days, relative to addition of no compound
Method: Karpas-299 cells were prepared to be 2×10^6 cells/mL in culture medium A, and were added to a 96 well microplate for cell culturing in an amount of 50 μL for each well. […] After culturing, the microplate was taken out from the incubator, and was left at rest at room temperature for 10 minutes. To each well, 50 μL of CellTiter-Glo Luminescent Cell Viability Assay (Promega) was added, and the resultant mixture was stirred.

Molecule | Cell remaining rate (%) (Karpas-299 cells [1]) | cellular toxicity (in words) (Karpas-299 cells [1]) | Microtubule polymerization rate (%) (porcine tubulin) | activity for inhibiting microtubule polymerization (in words) (porcine tubulin) | Cell remaining rate (%) (Karpas-299 cells [2])
CN[C@H](C(=O)N[C@H](C(=O)N(C)[C@H](/C=C(\C)C(=O)NCCCCNC(=O)CCCCCN1C(=O)CC(SC[C@H](N)C(=O)O)C1=O)C(C)C)C(C)(C)C)C(C)(C)c1cn(C)c2ccccc12 (stereo partly drawn) [Comparative Example compound, reference compound] | 18.1 | strong cellular toxicity | 0 | comparable activities for inhibiting microtubule polymerization | 
CN[C@H](C(=O)N[C@H](C(=O)N(C)[C@H](/C=C(\C)C(=O)N[C@H](CCC(=O)NCCCC[C@H](N)C(=O)O)C(=O)O)C(C)C)C(C)(C)C)C(C)(C)c1ccccc1 [Metabolite of Example ADC1] | 100 | weak cytotoxic activity | 1.7 | comparable activities for inhibiting microtubule polymerization | 
Brentuximab |  |  |  |  | 71.5
